The values below come from publication doi:10.1101/2024.06.03.597093v3 (biorxiv, 2024).

Like-named read-outs stand apart in the source and are kept apart here.

Assay [1] has as its target T1, β2AR-NlucC (β2AR) (Homo sapiens, UniProt P07550). Kind of assay: cell-based. The conditions noted are these: HEK-293T, read-out: Mini-G Protein Recruitment / Emax (%) ± SEM.
In assay [2] the target is T1, β2AR-NlucC (β2AR). Kind of assay: cell-based. The conditions noted are these: HEK-293T, read-out: CRISPR_mGs Emax.
The target of a further assay is β1AR-NlucC (CRISPR) (Homo sapiens, UniProt P08588). Conditions: CRISPR receptor; relative to adrenaline; agonist.
β1AR-NlucC (CRISPR), sequence (P08588 whole entry): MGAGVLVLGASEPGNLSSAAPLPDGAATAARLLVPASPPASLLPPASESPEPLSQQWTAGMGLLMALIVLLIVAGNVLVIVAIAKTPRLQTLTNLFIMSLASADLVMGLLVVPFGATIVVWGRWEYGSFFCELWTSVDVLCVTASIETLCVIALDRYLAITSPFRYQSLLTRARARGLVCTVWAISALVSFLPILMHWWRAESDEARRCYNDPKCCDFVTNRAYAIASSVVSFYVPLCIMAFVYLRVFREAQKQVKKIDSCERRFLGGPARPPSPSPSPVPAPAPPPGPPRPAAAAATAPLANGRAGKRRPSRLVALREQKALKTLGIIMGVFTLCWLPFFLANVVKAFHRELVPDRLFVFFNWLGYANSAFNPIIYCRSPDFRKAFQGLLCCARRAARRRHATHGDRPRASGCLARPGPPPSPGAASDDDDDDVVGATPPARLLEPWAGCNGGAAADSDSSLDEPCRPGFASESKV
The next assay addresses β2AR-NlucC (CRISPR) (Homo sapiens, UniProt P07550). Kind of assay: cell-based. The conditions noted are these: HEK-293T, read-out: CRISPR_receptor Emax.

T1 sequence (P07550 whole entry): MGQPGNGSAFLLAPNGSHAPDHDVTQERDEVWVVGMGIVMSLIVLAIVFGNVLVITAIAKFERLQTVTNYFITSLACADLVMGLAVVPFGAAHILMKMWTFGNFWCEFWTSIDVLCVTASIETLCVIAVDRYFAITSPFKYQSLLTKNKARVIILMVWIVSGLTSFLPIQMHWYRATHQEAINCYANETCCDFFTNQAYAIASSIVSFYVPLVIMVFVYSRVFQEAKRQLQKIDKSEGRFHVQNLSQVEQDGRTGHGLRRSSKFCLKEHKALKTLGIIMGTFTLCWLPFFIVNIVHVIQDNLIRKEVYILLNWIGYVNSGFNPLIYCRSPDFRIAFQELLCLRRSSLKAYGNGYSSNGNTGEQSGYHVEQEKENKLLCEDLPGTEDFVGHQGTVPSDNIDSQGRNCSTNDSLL
β2AR-NlucC (CRISPR), sequence (P07550 whole entry): as above

With `NC[C@H](O)c1ccc(O)c(O)c1` [noradrenaline], the figures for the Emax at β2AR-NlucC (β2AR) [1], at β2AR-NlucC (β2AR) [2] and at β2AR-NlucC (CRISPR) were 85 ± 2%, 51 ± 4% and 61 ± 7%, respectively. Besides, the “CRISPR_receptor Emax” value at β1AR-NlucC (CRISPR) came to 109 ± 7%.
